Reference: ChEMBL document CHEMBL5120961, “N-Arylimidazoliums as Highly Selective Biomimetic Antimicrobial Agents” (J Med Chem, 2022)
Converted amounts (≈) assume the structure as drawn. The source made the active and inactive calls. The calls are words filed in the database; no cut-off is given here. Bridge positions count the residues as written; N and C are the ends. Square brackets hold non-standard residues; d marks the D form. Peptide text beside a SMILES is read from it. * marks the point of attachment. X1 = CC[C@H](C)CCCCC(=O)*; Dab = NCC[C@H](N)C(=O)O

Tests used:
Escherichia coli [1] = experiment: Antibacterial activity against Escherichia coli ATCC 25922 assessed as inhibition of bacterial growth incubated for 16 to 18 hrs by broth microdilution method; type: functional; conditions: time 16-18 hrs
Acinetobacter baumannii = experiment: Antibacterial activity against Acinetobacter baumannii ATCC 19606 assessed as inhibition of bacterial growth incubated for 16 to 18 hrs by broth microdilution method; type: functional; conditions: time 16-18 hrs
Pseudomonas aeruginosa = experiment: Antibacterial activity against Pseudomonas aeruginosa ATCC 27853 assessed as inhibition of bacterial growth incubated for 16 to 18 hrs by broth microdilution method; type: functional; conditions: time 16-18 hrs
Klebsiella pneumoniae = experiment: Antibacterial activity against Klebsiella pneumoniae CMCC(B) 46117 assessed as inhibition of bacterial growth incubated for 16 to 18 hrs by broth microdilution method; type: functional; conditions: time 16-18 hrs
Staphylococcus aureus [2] = experiment: Antibacterial activity against methicillin-resistant Staphylococcus aureus ATCC 43300 assessed as inhibition of bacterial growth incubated for 16 to 18 hrs by broth microdilution method; type: functional; conditions: time 16-18 hrs
Staphylococcus aureus [3] = experiment: Antibacterial activity against Staphylococcus aureus ATCC 25923 assessed as inhibition of bacterial growth incubated for 16 to 18 hrs by broth microdilution method; type: functional; conditions: time 16-18 hrs
Erythrocyte = experiment: Hemolytic activity in rabbit erythrocytes incubated for 1 hr; type: toxicity, cell-based, Oryctolagus cuniculus
[4] = Selectivity ratio of HC5 for hemolytic activity in rabbit erythrocytes to MIC for antibacterial activity against methicillin-resistant Staphylococcus aureus ATCC 43300; type: toxicity, cell-based
Enterococcus faecalis = experiment: Antibacterial activity against Enterococcus faecalis ATCC 29212 assessed as inhibition of bacterial growth incubated for 16 to 18 hrs by broth microdilution method; type: functional; conditions: time 16-18 hrs
Staphylococcus aureus [5] = experiment: Bactericidal activity against Staphylococcus aureus ATCC 25923 assessed as eradication of bacterial colonies at 4XMIC measured after 15 mins by time-kill kinetics analysis; type: functional, organism-based
Escherichia coli [6] = experiment: Bactericidal activity against Escherichia coli ATCC 25922 assessed as eradication of bacterial colonies at 16XMIC measured after 30 mins time-kill kinetics analysis; type: functional, organism-based
[7] = Increase in intracellular ROS level in Staphylococcus aureus ATCC 25923 at 4XMIC measured after 10 mins by DCFH-DA staining based fluorescence analysis relative to control; type: functional
[8] = Increase in intracellular ROS level in Escherichia coli ATCC 25922 at 4XMIC measured after 10 mins by DCFH-DA staining based fluorescence analysis relative to control; type: functional
Staphylococcus aureus [9] = experiment: Antibacterial activity against Staphylococcus aureus ATCC 25923 assessed as inhibition of bacterial growth incubated for 16 to 18 hrs in presence of ROS scavenger, NAC by broth microdilution method; type: functional; conditions: time 16-18 hrs
Escherichia coli [10] = experiment: Antibacterial activity against Escherichia coli ATCC 25922 assessed as inhibition of bacterial growth incubated for 16 to 18 hrs in presence of ROS scavenger, NAC by broth microdilution method; type: functional; conditions: time 16-18 hrs
Staphylococcus aureus [11] = experiment: Antibacterial activity against methicillin-resistant Staphylococcus aureus ATCC 43300 assessed as inhibition of bacterial growth measured after 10 passages by broth microdilution method; type: functional, organism-based
Staphylococcus aureus [12] = experiment: Inhibition of biofilm formation in methicillin-resistant Staphylococcus aureus ATCC 43300 incubated for 24 hrs under stationary conditions by crystal violet staining based analysis; type: functional, organism-based
Staphylococcus aureus [13] = experiment: Inhibition of biofilm formation in methicillin-resistant Staphylococcus aureus ATCC 43300 at MIC incubated for 24 hrs under stationary conditions by crystal violet staining based analysis; type: functional
Staphylococcus aureus [14] = experiment: Disruption of established biofilm in methicillin-resistant Staphylococcus aureus ATCC 43300 assessed as reduction of relative biofilm mass incubated for 24 hrs by crystal violet staining based analysis; type: functional, organism-based; conditions: DDE = dose-dependent effect
Staphylococcus aureus [15] = experiment: Disruption of established biofilm in methicillin-resistant Staphylococcus aureus ATCC 43300 assessed as reduction of relative biofilm mass at 64XMIC incubated for 24 hrs by crystal violet staining based analysis; type: functional
[16] = Cytotoxicity against human HEK293 cells assessed as reduction of cell viability incubated for 48 hrs by MTT assay; type: toxicity, cell-based
[17] = Half-life in Sprague-Dawley rat at 8 mg/kg, iv by LC-MS analysis; type: ADME, organism-based; conditions: in vivo
[18] = AUC (0 to infinity) in Sprague-Dawley rat at 8 mg/kg, iv by LC-MS analysis; type: ADME, organism-based; design: time infinity, dose 8 mg/kg, route iv; conditions: in vivo
[19] = Acute toxicity in BALB/c mouse assessed as lethargy at >12 mg/kg, iv; type: organism-based; conditions: in vivo
[20] = Acute toxicity in BALB/c mouse assessed as clonic convulsion at >12 mg/kg, iv; type: organism-based; conditions: in vivo
[21] = Acute toxicity in BALB/c mouse assessed as anorexia at >12 mg/kg, iv; type: organism-based; conditions: in vivo
[22] = Acute toxicity in BALB/c mouse assessed as ruffled fur at >12 mg/kg, iv; type: organism-based; conditions: in vivo
[23] = Acute toxicity in BALB/c mouse assessed as animal's death at >12 mg/kg, iv; type: organism-based; conditions: in vivo
[24] = Subacute toxicity in BALB/c mouse assessed as animal's death at 4 to 8 mg/kg, iv administered everyday for 7 days; type: organism-based; conditions: in vivo, 168 h, dose 4-8 mg/kg, time 7 day
[25] = Subacute toxicity in BALB/c mouse assessed as animals abnormal behaviour at 4 to 8 mg/kg, iv administered everyday for 7 days; type: organism-based; conditions: in vivo, 168 h, dose 4-8 mg/kg, time 7 day
[26] = Subacute toxicity in BALB/c mouse assessed as histopathological changes of heart at 4 to 8 mg/kg, iv administered for 7 days and measured on day 14 by hematoxyin-eosin staining based analysis; type: organism-based; conditions: in vivo, 336 h, dose 4-8 mg/kg, time 14 day
[27] = Subacute toxicity in BALB/c mouse assessed as histopathological changes of liver at 4 to 8 mg/kg, iv administered for 7 days and measured on day 14 by hematoxyin-eosin staining based analysis; type: organism-based; conditions: in vivo, 336 h, dose 4-8 mg/kg, time 14 day
[28] = Subacute toxicity in BALB/c mouse assessed as histopathological changes of spleen at 4 to 8 mg/kg, iv administered for 7 days and measured on day 14 by hematoxyin-eosin staining based analysis; type: organism-based; conditions: in vivo, 336 h, dose 4-8 mg/kg, time 14 day
[29] = Subacute toxicity in BALB/c mouse assessed as histopathological changes of lungs at 4 to 8 mg/kg, iv administered for 7 days and measured on day 14 by hematoxyin-eosin staining based analysis; type: organism-based; conditions: in vivo, 336 h, dose 4-8 mg/kg, time 14 day
[30] = Subacute toxicity in BALB/c mouse assessed as histopathological changes of kidney at 4 to 8 mg/kg, iv administered for 7 days and measured on day 14 by hematoxyin-eosin staining based analysis; type: organism-based; conditions: in vivo, 336 h, dose 4-8 mg/kg, time 14 day
[31] = Tmax in Sprague-Dawley rat at 8 mg/kg, iv by LC-MS analysis; type: ADME, organism-based; conditions: in vivo
[32] = MRT (0 to infinity) in Sprague-Dawley rat at 8 mg/kg, iv by LC-MS analysis; type: ADME, organism-based; conditions: in vivo
[33] = Cmax in Sprague-Dawley rat at 8 mg/kg, iv by LC-MS analysis; type: ADME, organism-based; design: dose 8 mg/kg, route iv; conditions: in vivo
[34] = Mean clearance rate, Clz in Sprague-Dawley rat at 8 mg/kg, iv by LC-MS analysis; type: ADME, organism-based; conditions: in vivo
Staphylococcus aureus [35] = experiment: Antibacterial activity against methicillin-resistant Staphylococcus aureus ATCC 43300 infected in BALB/c mouse assessed as increase in animal's survival rate at 4 mg/kg, iv administered at 1, 6, 25 and 30 hrs post-infection and measured for 7 day post-infection; type: functional, organism-based
Staphylococcus aureus [36] = experiment: Antibacterial activity against methicillin-resistant Staphylococcus aureus ATCC 43300 infected in BALB/c mouse assessed as reduction in bacterial burden in lungs at 4 mg/kg, iv administered at 1, 6, 25 and 30 hrs post-infection and measured on day 7 post-infection by colony forming unit assay; type: functional, organism-based; conditions: time 7.0 day
Staphylococcus aureus [37] = experiment: Antibacterial activity against methicillin-resistant Staphylococcus aureus ATCC 43300 infected in BALB/c mouse assessed as reduction in TNF-alpha content in lungs at 4 mg/kg, iv administered at 1, 6, 25 and 30 hrs post-infection and measured on day 7 post-infection by ELISA; type: functional, organism-based; conditions: time 7.0 day
Staphylococcus aureus [38] = experiment: Antibacterial activity against methicillin-resistant Staphylococcus aureus ATCC 43300 infected in BALB/c mouse assessed as increase in IL-10 content in lungs at 4 mg/kg, iv administered at 1, 6, 25 and 30 hrs post-infection and measured on day 7 post-infection by ELISA; type: functional, organism-based; conditions: time 7.0 day
Staphylococcus aureus [39] = experiment: Antibacterial activity against methicillin-resistant Staphylococcus aureus ATCC 43300 infected in BALB/c mouse assessed as reduction in MPO content in lungs at 4 mg/kg, iv administered at 1, 6, 25 and 30 hrs post-infection and measured on day 7 post-infection by ELISA; type: functional, organism-based; conditions: time 7.0 day
Staphylococcus aureus [40] = experiment: (§1) Antibacterial activity against methicillin-resistant Staphylococcus aureus ATCC 43300 infected in BALB/c mouse assessed as reduction of NF-kappaB p65 expression in lungs at 4 mg/kg, iv administered at 1, 6, 25 and 30 hrs post-infection and measured on day 7 post-infection by western blot analysis; type: functional, organism-based; conditions: time 7.0 day
Staphylococcus aureus [41] = experiment: as §1, with “histopathological changes of pulmonary tissue” for “NF-kappaB p65 expression in lungs”, “hematoxylin-eosin staining based” for “western blot”; type: functional, organism-based; conditions: time 7.0 day

## CC[C@H](C)CCCCC(=O)N[C@@H](CCN)C(=O)N[C@H](C(=O)N[C@@H](CCN)C(=O)N[C@H]1CCNC(=O)[C@H]([C@@H](C)O)NC(=O)[C@H](CCN)NC(=O)[C@H](CCN)NC(=O)[C@H](CC(C)C)NC(=O)[C@@H](Cc2ccccc2)NC(=O)[C@H](CCN)NC1=O)[C@@H](C)O (X1-[Dab]T[Dab][Dab][Dab][dF]L[Dab][Dab]T; lactam 4-C)
Escherichia coli [1]
  MIC: 1 mg/L (≈ 0.831 µM)
Acinetobacter baumannii
  MIC: 1 mg/L (≈ 0.831 µM)
Pseudomonas aeruginosa
  MIC: 1 mg/L (≈ 0.831 µM)
Klebsiella pneumoniae
  MIC: 1 mg/L (≈ 0.831 µM)

## CCCCCC[n+]1ccn(-c2ccc(C#Cc3ccc(-n4cc[n+](CCCCCC)c4)cc3)cc2)c1.[Br-].[Br-]
Staphylococcus aureus [2]
  MIC: 0.5 mg/L
Staphylococcus aureus [3]
  MIC: 0.25 mg/L
Escherichia coli [1]
  MIC: 1 mg/L
Erythrocyte
  HC5: 800 µg/mL
[4]
  selectivity ratio: 1600
Enterococcus faecalis
  MIC: 8 mg/L
Acinetobacter baumannii
  MIC: 32 mg/L
Pseudomonas aeruginosa
  MIC: 32 mg/L
Klebsiella pneumoniae
  MIC: 32 mg/L
Staphylococcus aureus [5]
  Activity: Active
Escherichia coli [6]
  Activity: Active
[7]
  fold change (FC): 2
[8]
  fold change (FC): 20
Staphylococcus aureus [9]
  MIC: 64 mg/L
Escherichia coli [10]
  MIC: 32 mg/L
Staphylococcus aureus [11]
  Activity: Active
Staphylococcus aureus [12]
  inhibition: Active
Staphylococcus aureus [13]
  inhibition (INH): 100%
Staphylococcus aureus [14]
  Activity: Dde
Staphylococcus aureus [15]
  inhibition (INH): 69%
[16]
  CC50 at 48 h: 224 mg/L
[17]
  half-life: 51.4 min
[18]
  AUC(0-inf): 5.12 µg·h/mL
[19]
  Activity: Non-Toxic
[20]
  Activity: Non-Toxic
[21]
  Activity: Non-Toxic
[22]
  Activity: Non-Toxic
[23]
  Activity: Non-Toxic
[24]
  Activity: Non-Toxic
[25]
  Activity: Non-Toxic
[26]
  Activity: Non-Toxic
[27]
  Activity: Non-Toxic
[28]
  Activity: Non-Toxic
[29]
  Activity: Non-Toxic
[30]
  Activity: Non-Toxic
[31]
  Tmax: 4.98 min
[32]
  MRT inf: 32.5 min
[33]
  Cmax: 12 µg/mL
[34]
  clearance: 1.63 L/h/kg
Staphylococcus aureus [35]
  Activity: Active
Staphylococcus aureus [36]
  Activity: Active
Staphylococcus aureus [37]
  Activity: Active
Staphylococcus aureus [38]
  Activity: Active
Staphylococcus aureus [39]
  Activity: Active
Staphylococcus aureus [40]
  Activity: Active
Staphylococcus aureus [41]
  Activity: Active

## C(#Cc1ccc(-n2ccnc2)cc1)c1ccc(-n2ccnc2)cc1
Staphylococcus aureus [2]
  MIC: > 500 mg/L
Staphylococcus aureus [3]
  MIC: > 500 mg/L
Escherichia coli [1]
  MIC: > 500 mg/L

## C(#Cc1ccc(-n2cc[n+](Cc3ccccc3)c2)cc1)c1ccc(-n2cc[n+](Cc3ccccc3)c2)cc1.[Br-].[Br-]
Staphylococcus aureus [2]
  MIC: 1 mg/L
Staphylococcus aureus [3]
  MIC: 0.5 mg/L
Escherichia coli [1]
  MIC: 2 mg/L
Erythrocyte
  HC5: 200 µg/mL
[4]
  selectivity ratio: 200

## CCCCCCCC[n+]1ccn(-c2ccc(C#Cc3ccc(-n4cc[n+](CCCCCCCC)c4)cc3)cc2)c1.[Br-].[Br-]
Staphylococcus aureus [2]
  MIC: 1 mg/L
Staphylococcus aureus [3]
  MIC: 1 mg/L
Escherichia coli [1]
  MIC: 1 mg/L
Erythrocyte
  HC5: 200 µg/mL
[4]
  selectivity ratio: 200

## CCn1cc(C(=O)O)c(=O)c2cc(F)c(N3CCNCC3)cc21 [NORFLOXACIN]
Staphylococcus aureus [2]
  MIC: 1 mg/L (≈ 3.13 µM)
Staphylococcus aureus [3]
  MIC: 1 mg/L (≈ 3.13 µM)
